Measured values from PubChem BioAssay AID276 (DTP/NCI, 2004).
Values joined by “and” are separate entries in the source; they are usually repeats but may differ in a detail not shown here. Equal values may be shown once. Toxic doses and inconclusive results are not listed.

System: B6C3F1 mice, Lewis lung carcinoma iv, survival T/C
Assay: NCI In Vivo Anticancer Drug Screen. Data for tumor model Lewis Lung Carcinoma (intravenous) in B6C3F1 mice
Conditions: endpoint: median survival time, schedule: Q01DX009 (ip), higher = longer survival
Method in brief: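 Read-out is survival, expressed as the treated-group measurement over the vehicle control-group measurement. Animals bore a transplantable tumor and were given compound.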

[1] = dose: 100.0 mg/kg/injection, vehicle: Klucel (hydroxypropylcellulose) (HPC)
[2] = dose: 200.0 mg/kg/injection, vehicle: Klucel (hydroxypropylcellulose) (HPC)
[3] = dose: 400.0 mg/kg/injection, vehicle: Klucel (hydroxypropylcellulose) (HPC)
[4] = dose: 12.5 mg/kg/injection, vehicle: saline with Tween-80
[5] = dose: 25.0 mg/kg/injection, vehicle: saline with Tween-80
[6] = dose: 50.0 mg/kg/injection, vehicle: saline with Tween-80
[7] = dose: 100.0 mg/kg/injection, vehicle: saline with Tween-80
[8] = dose: 200.0 mg/kg/injection, vehicle: saline with Tween-80
[9] = dose: 400.0 mg/kg/injection, vehicle: saline with Tween-80
[10] = dose: 1.56 mg/kg/injection, vehicle: saline
[11] = dose: 3.12 mg/kg/injection, vehicle: saline
[12] = dose: 6.25 mg/kg/injection, vehicle: saline with Tween-80
[13] = dose: 1.0 mg/kg/injection, vehicle: saline

## CC12CC(C(=O)O)C3(O)CC(C)(C1)CC(C)(C2)C3 (stereo not drawn) (tested in a mixture with another compound)
[1]
  T/C: 124 % of control
[2]
  T/C: 114 % of control
[3]
  T/C: 98 % of control

## CCOC(=O)C1(c2ccccc2)C(=O)Oc2ccccc21 (stereo not drawn)
[4]
  T/C: 97 % of control
[5]
  T/C: 97 % of control
[6]
  T/C: 96 % of control
[7]
  T/C: 97 % of control
[8]
  T/C: 99 % of control
[9]
  T/C: 99 % of control

## O=NN(CCCl)C(=O)NC1[C@H](O)CCC[C@@H]1O (stereo partly drawn)
dose: 0.32 mg/kg/injection, vehicle: saline
  T/C: 96 % of control
dose: 0.63 mg/kg/injection, vehicle: saline
  T/C: 111 % of control
dose: 1.25 mg/kg/injection, vehicle: saline
  T/C: 103 % of control and 116 % of control
dose: 5.0 mg/kg/injection, vehicle: saline
  T/C: 163 % of control and 173 % of control
dose: 10.0 mg/kg/injection, vehicle: saline
  T/C: 98 % of control and 118 % of control

## N#CC(=C1SCS1)[N+](=O)[O-]
dose: 0.37 mg/kg/injection, vehicle: saline with Tween-80
  T/C: 98 % of control
dose: 0.75 mg/kg/injection, vehicle: saline with Tween-80
  T/C: 107 % of control
dose: 1.5 mg/kg/injection, vehicle: saline with Tween-80
  T/C: 106 % of control
dose: 3.0 mg/kg/injection, vehicle: saline with Tween-80
  T/C: 109 % of control
dose: 6.0 mg/kg/injection, vehicle: saline with Tween-80
  T/C: 106 % of control
dose: 12.0 mg/kg/injection, vehicle: saline with Tween-80
  T/C: 92 % of control

## CCCC(=O)O.CCCC(=O)O.CCCC(=O)O.CCCC(=O)O.[Rh].[Rh]
dose: 0.03 mg/kg/injection, vehicle: saline + alcohol
  T/C: 95 % of control
dose: 0.06 mg/kg/injection, vehicle: saline + alcohol
  T/C: 97 % of control and 100 % of control
dose: 0.12 mg/kg/injection, vehicle: saline + alcohol
  T/C: 93 % of control and 100 % of control
dose: 0.25 mg/kg/injection, vehicle: saline + alcohol
  T/C: 91 % of control and 102 % of control
dose: 0.5 mg/kg/injection, vehicle: saline + alcohol
  T/C: 92 % of control and 97 % of control
dose: 1.0 mg/kg/injection, vehicle: saline + alcohol
  T/C: 91 % of control and 96 % of control

## NC(C(=O)O)c1ccc(CBr)cc1 (stereo not drawn)
[4]
  T/C: 97 % of control
[5]
  T/C: 100 % of control
[6]
  T/C: 105 % of control
[7]
  T/C: 93 % of control

## COc1ccc(C(=O)C(CN(C)C)CN(C)C)cc1
[10]
  T/C: 96 % of control
[11]
  T/C: 102 % of control
dose: 6.25 mg/kg/injection, vehicle: saline
  T/C: 102 % of control
dose: 12.5 mg/kg/injection, vehicle: saline
  T/C: 105 % of control
dose: 25.0 mg/kg/injection, vehicle: saline
  T/C: 105 % of control

## O=C(c1cccnc1)c1cc(-c2ccccn2)c(=O)n2ccccc12
[5]
  T/C: 100 % of control
[6]
  T/C: 96 % of control
[7]
  T/C: 102 % of control
[8]
  T/C: 105 % of control
[9]
  T/C: 102 % of control

## CCC1CCCCN1C(=S)N/N=C(\C)c1ccccn1 (stereo not drawn)
[12]
  T/C: 101 % of control
[4]
  T/C: 115 % of control
[5]
  T/C: 104 % of control

## CO[C@@H]1[C@H](O)CC[C@]2(CO2)[C@H]1[C@@]1(C)O[C@@H]1CC=C(C)C
dose: 1.56 mg/kg/injection, vehicle: saline with Tween-80
  T/C: 95 % of control and 101 % of control
dose: 3.12 mg/kg/injection, vehicle: saline with Tween-80
  T/C: 95 % of control and 103 % of control
[12]
  T/C: 93 % of control and 101 % of control
[4]
  T/C: 101 % of control
[5]
  T/C: 106 % of control and 115 % of control
[6]
  T/C: 103 % of control and 107 % of control

## CC(C)[C@]12O[C@H]1[C@@H]1O[C@]13[C@]1(O[C@H]1C[C@H]1C4=C(C(=O)OC4)[C@@H](O)C[C@@]13C)[C@@H]2O
dose: 25.0 micrograms/kg/injection, vehicle: saline + alcohol
  T/C: 98 % of control
dose: 50.0 micrograms/kg/injection, vehicle: saline + alcohol
  T/C: 110 % of control
dose: 100.0 micrograms/kg/injection, vehicle: saline + alcohol
  T/C: 102 % of control
dose: 200.0 micrograms/kg/injection, vehicle: saline + alcohol
  T/C: 88 % of control
dose: 400.0 micrograms/kg/injection, vehicle: saline + alcohol
  T/C: 107 % of control

## C[CH2][Sn]([CH2]C)([O]S(C)(=O)=O)[O]S(C)(=O)=O
dose: 0.09 mg/kg/injection, vehicle: saline
  T/C: 108 % of control
dose: 0.19 mg/kg/injection, vehicle: saline
  T/C: 97 % of control
dose: 0.39 mg/kg/injection, vehicle: saline
  T/C: 99 % of control
dose: 0.79 mg/kg/injection, vehicle: saline
  T/C: 109 % of control
[10]
  T/C: 93 % of control and 102 % of control
[11]
  T/C: 91 % of control and 87 % of control

## O=C1C(NCCO)=C(N2CC2)C(=O)C(NCCO)=C1N1CC1
dose: 0.06 mg/kg/injection, vehicle: saline
  T/C: 103 % of control
dose: 0.12 mg/kg/injection, vehicle: saline
  T/C: 97 % of control
dose: 0.25 mg/kg/injection, vehicle: saline
  T/C: 106 % of control
dose: 0.5 mg/kg/injection, vehicle: saline
  T/C: 108 % of control
[13]
  T/C: 106 % of control

## Cc1cc(NCCCCCCNc2cc(C)nc3cc(N(C)C)ccc23)c2ccc(N(C)C)cc2n1
dose: 3.12 mg/kg/injection, vehicle: distilled water + Tween-80 + alcohol
  T/C: 98 % of control
dose: 6.25 mg/kg/injection, vehicle: distilled water + Tween-80 + alcohol
  T/C: 100 % of control
dose: 12.5 mg/kg/injection, vehicle: distilled water + Tween-80 + alcohol
  T/C: 93 % of control
dose: 25.0 mg/kg/injection, vehicle: distilled water + Tween-80 + alcohol
  T/C: 102 % of control

## C/C=C(\C)c1cc(=O)c2c(C)cc3c(c2o1)C(=O)c1c(O)c(C2CC(C)(N(C)C)C(O)C(C)O2)cc(C2CC(N(C)C)C(O)C(C)O2)c1C3=O (stereo not drawn)
dose: 31.25 micrograms/kg/injection, vehicle: saline
  T/C: 98 % of control
dose: 62.5 micrograms/kg/injection, vehicle: saline
  T/C: 101 % of control
dose: 125.0 micrograms/kg/injection, vehicle: saline
  T/C: 101 % of control
dose: 250.0 micrograms/kg/injection, vehicle: saline
  T/C: 98 % of control

## C[n+]1cccc(NC(=O)c2ccc(NC(=O)C34CCC(C(=O)Nc5ccc(C(=O)Nc6ccc[n+](C)c6)cc5)(CC3)CC4)cc2)c1
dose: 5.0 mg/kg/injection, vehicle: saline with Tween-80
  T/C: 106 % of control
dose: 10.0 mg/kg/injection, vehicle: saline with Tween-80
  T/C: 122 % of control

## Nc1ccn(C2OC(CO)C(O)C2O)c(=O)n1 (stereo not drawn)
[13]
  T/C: 98 % of control
dose: 2.0 mg/kg/injection, vehicle: saline
  T/C: 97 % of control
dose: 4.0 mg/kg/injection, vehicle: saline
  T/C: 100 % of control
dose: 15.0 mg/kg/injection, vehicle: saline
  T/C: 110 % of control
dose: 50.0 mg/kg/injection, vehicle: saline
  T/C: 160 % of control
dose: 100.0 mg/kg/injection, vehicle: saline
  T/C: 203 % of control

## C=C1C(=O)OCC1(C(=O)OCC)C(=O)OCC
dose: 4.0 mg/kg/injection, vehicle: saline with Tween-80
  T/C: 95 % of control
dose: 8.0 mg/kg/injection, vehicle: saline with Tween-80
  T/C: 103 % of control
dose: 16.0 mg/kg/injection, vehicle: saline with Tween-80
  T/C: 105 % of control
dose: 32.0 mg/kg/injection, vehicle: saline with Tween-80
  T/C: 96 % of control

## O=S(=O)(SC(S(=O)(=O)c1ccccc1)S(=O)(=O)c1ccccc1)c1ccccc1
[1]
  T/C: 100 % of control
[2]
  T/C: 102 % of control
[3]
  T/C: 98 % of control
